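96-well plates; 48 h exposure; 5 concentrations. Endpoints by linear interpolation between flanking doses. Not reached: highest tested concentration assigned. Here, GI50 denotes the concentration required for 50% inhibition of growth.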 Calls of active or inactive are those of the source. Rule as the data show it: active = GI50 up to about 1.1 µM and inactive = higher.
How the values were obtained:
Assay in all cases: NCI tumour cell line growth inhibition, 48 h
786-0 = system: 786-0
A498 = system: A498
A549 = system: A549
ACHN = system: ACHN
CAKI-1 = system: CAKI-1
CCRF-CEM = system: CCRF-CEM
COLO 205 = system: COLO 205
DLD-1 = system: DLD-1
DMS-114 = system: DMS-114
DMS-273 = system: DMS-273
EKVX = system: EKVX
HCC 2998 = system: HCC 2998
HCT-116 = system: HCT-116
HCT-15 = system: HCT-15
HL-60 = system: HL-60
HOP-18 = system: HOP-18
HOP-62 = system: HOP-62
HOP-92 = system: HOP-92
HT-29 = system: HT-29
IGROV-1 = system: IGROV-1
K562 = system: K562
KM-20L2 = system: KM-20L2
KM12 = system: KM12
LOX IMVI = system: LOX IMVI
LXFL 529 = system: LXFL 529
M14 = system: M14
M19-MEL = system: M19-MEL
MOLT-4 = system: MOLT-4
Malme-3M = system: Malme-3M
NCI-H226 = system: NCI-H226
NCI-H23 = system: NCI-H23
NCI-H460 = system: NCI-H460
NCI-H522 = system: NCI-H522
OVCAR-3 = system: OVCAR-3
OVCAR-4 = system: OVCAR-4
OVCAR-5 = system: OVCAR-5
OVCAR-8 = system: OVCAR-8
RPMI-8226 = system: RPMI-8226
RXF 393 = system: RXF 393
RXF 631 = system: RXF 631
SF-268 = system: SF-268
SF-295 = system: SF-295
SF-539 = system: SF-539
SK-MEL-28 = system: SK-MEL-28
SK-MEL-2 = system: SK-MEL-2
SK-MEL-5 = system: SK-MEL-5
SK-OV-3 = system: SK-OV-3
SN12C = system: SN12C
SNB-19 = system: SNB-19
SNB-75 = system: SNB-75
SNB-78 = system: SNB-78
SR = system: SR
SW-620 = system: SW-620
TK-10 = system: TK-10
U-251 = system: U-251
UACC-257 = system: UACC-257
UACC-62 = system: UACC-62
UO-31 = system: UO-31
XF498 = system: XF498

How did the GI50 (786-0) turn out when CC1OC(OCC2OC(Oc3c(-c4ccc(O)cc4)oc4cc(O)cc(O)c4c3=O)C(OC3OC(C)C(O)C(O)C3O)C(O)C2O)C(O)C(O)C1O (centres undefined) was run?
The GI50 was > 100 µM (inactive).

What about the GI50 (A498) of the same compound?
The GI50 was > 100 µM (inactive).

What about the GI50 (A549) of the same compound?
Its GI50 is > 100 µM (inactive).

What about the GI50 (ACHN) of the same compound?
Its GI50 is > 67.6 µM (inactive).

What about the GI50 (CAKI-1) of the same compound?
The GI50 was > 100 µM (inactive).

And the GI50 (CCRF-CEM)?
The GI50 was > 51.5 µM (inactive).

What about the GI50 (COLO 205) of the same compound?
Its GI50 is > 46 µM (inactive).

What about the GI50 (DLD-1) of the same compound?
Its GI50 is > 100 µM (inactive).

And the GI50 (DMS-114)?
Its GI50 is > 53.7 µM (inactive).

What about the GI50 (DMS-273) of the same compound?
Its GI50 is > 84.1 µM (inactive).

And the GI50 (EKVX)?
Its GI50 is > 100 µM (inactive).

What about the GI50 (HCC 2998) of the same compound?
Its GI50 is > 100 µM (inactive).

What about the GI50 (HCT-116) of the same compound?
Its GI50 is > 100 µM (inactive).

What about the GI50 (HCT-15) of the same compound?
Its GI50 is greater than 42.3 µM.

And the GI50 (HL-60)?
The GI50 was > 100 µM (inactive).

What about the GI50 (HOP-18) of the same compound?
The GI50 was > 100 µM (inactive).

What about the GI50 (HOP-62) of the same compound?
Its GI50 is > 100 µM (inactive).

What about the GI50 (HOP-92) of the same compound?
Its GI50 is > 100 µM (inactive).

What about the GI50 (HT-29) of the same compound?
The GI50 was > 100 µM (inactive).

What about the GI50 (IGROV-1) of the same compound?
Its GI50 is > 100 µM (inactive).

What about the GI50 (K562) of the same compound?
The GI50 was > 31.6 µM (inactive).

And the GI50 (KM-20L2)?
The GI50 was > 100 µM (inactive).

And the GI50 (KM12)?
The GI50 was > 100 µM (inactive).

And the GI50 (LOX IMVI)?
Its GI50 is > 63.1 µM (inactive).

What about the GI50 (LXFL 529) of the same compound?
Its GI50 is > 100 µM (inactive).

What about the GI50 (M14) of the same compound?
Its GI50 is > 100 µM (inactive).

And the GI50 (M19-MEL)?
Its GI50 is > 72.4 µM (inactive).

What about the GI50 (MOLT-4) of the same compound?
Its GI50 is > 100 µM (inactive).

What about the GI50 (Malme-3M) of the same compound?
The GI50 was > 100 µM (inactive).

What about the GI50 (NCI-H226) of the same compound?
The GI50 was > 100 µM (inactive).

What about the GI50 (NCI-H23) of the same compound?
The GI50 was > 100 µM (inactive).

What about the GI50 (NCI-H460) of the same compound?
Its GI50 is > 68.9 µM (inactive).

What about the GI50 (NCI-H522) of the same compound?
The GI50 was > 100 µM (inactive).

And the GI50 (OVCAR-3)?
Its GI50 is > 100 µM (inactive).

What about the GI50 (OVCAR-4) of the same compound?
The GI50 was > 54.8 µM (inactive).

What about the GI50 (OVCAR-5) of the same compound?
The GI50 was > 100 µM (inactive).

And the GI50 (OVCAR-8)?
The GI50 was > 100 µM (inactive).

And the GI50 (RPMI-8226)?
Its GI50 is > 56.8 µM (inactive).

And the GI50 (RXF 393)?
The GI50 was > 100 µM (inactive).

And the GI50 (RXF 631)?
Its GI50 is > 100 µM (inactive).

What about the GI50 (SF-268) of the same compound?
Its GI50 is > 100 µM (inactive).

What about the GI50 (SF-295) of the same compound?
The GI50 was > 100 µM (inactive).

What about the GI50 (SF-539) of the same compound?
The GI50 was > 100 µM (inactive).

What about the GI50 (SK-MEL-28) of the same compound?
Its GI50 is > 100 µM (inactive).

And the GI50 (SK-MEL-2)?
The GI50 was > 100 µM (inactive).

And the GI50 (SK-MEL-5)?
The GI50 was > 100 µM (inactive).

And the GI50 (SK-OV-3)?
Its GI50 is > 100 µM (inactive).

What about the GI50 (SN12C) of the same compound?
Its GI50 is > 100 µM (inactive).

What about the GI50 (SNB-19) of the same compound?
Its GI50 is > 100 µM (inactive).

What about the GI50 (SNB-75) of the same compound?
Its GI50 is > 100 µM (inactive).

And the GI50 (SNB-78)?
Its GI50 is > 100 µM (inactive).

What about the GI50 (SR) of the same compound?
Its GI50 is > 100 µM (inactive).

And the GI50 (SW-620)?
Its GI50 is > 36.2 µM (inactive).

And the GI50 (TK-10)?
The GI50 was > 100 µM (inactive).

And the GI50 (U-251)?
The GI50 was > 100 µM (inactive).

And the GI50 (UACC-257)?
The GI50 was > 100 µM (inactive).

What about the GI50 (UACC-62) of the same compound?
Its GI50 is > 100 µM (inactive).

What about the GI50 (UO-31) of the same compound?
The GI50 was > 100 µM (inactive).

What about the GI50 (XF498) of the same compound?
The GI50 was > 100 µM (inactive).

From ChEMBL document CHEMBL1201862, “PubChem BioAssay data set” (2004)
